Results: US20260297060A1, “COMPOUNDS FOR THE DEGRADATION OF MUTANT BRAF” (C4 THERAPEUTICS, INC., priority 2023, published 2026)
Where two headings read alike, the source gives them in different places.

Target: T1, BRAF V600E (Homo sapiens, UniProt P15056+Q96SW2, V600E)
T1 construct: knock-in of the HiBiT tag to the endogenous BRAF V600E locus; host or cells: A375.10 (A375 clonal line, CRISPR HiBiT knock-in at the endogenous BRAF V600E locus)
Experiment: BRAF V600E HiBiT Degradation Assay
Type: cell-based
How it was run: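 Endogenous HiBiT knock-in on BRAF V600E in A375 cells (clone A375.10); 11-point half-log series, top 10 μM, 2, 6 or 24 h at 37° C. Lytic HiBiT luminescence, background-subtracted, normalized to DMSO; 4-parameter fit gives DC50, Emax (residual protein) and IP (inflection point).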

[1] = A375.10 cells, BRAF V600E, 2 hours, inflection point, read-out: HiBiT-Degradation A375.10 BRAF 2 hours IP
[2] = A375.10 cells, BRAF V600E, 2 hours, read-out: HiBiT-Degradation A375.10 BRAF 2 hours DC50
[3] = A375.10 cells, BRAF V600E, 2 hours, residual protein remaining, read-out: HiBiT-Degradation A375.10 BRAF 2 hours Emax
[4] = A375.10 cells, BRAF V600E, 6 hours, inflection point, read-out: HiBiT-Degradation A375.10 BRAF 6 hours IP
[5] = A375.10 cells, BRAF V600E, 6 hours, read-out: HiBiT-Degradation A375.10 BRAF 6 hours DC50
[6] = A375.10 cells, BRAF V600E, 6 hours, residual protein remaining, read-out: HiBiT-Degradation A375.10 BRAF 6 hours Emax
[7] = A375.10 cells, HiBiT, BRAF V600E, 24 hours, read-out: HiBiT-Degradation A375.10 BRAF 24 hours DC50
[8] = A375.10 cells, HiBiT, BRAF V600E, 24 hours, read-out: HiBiT-Degradation A375.10 BRAF 24 hours Emax
[9] = A375.10 cells, HiBiT, BRAF V600E, 24 hours, read-out: HiBiT-Degradation A375.10 BRAF 24 hours IP
[10] = A375.10 cells, BRAF V600E, 6 hours, residual protein remaining
[11] = A375.10 cells, HiBiT, BRAF V600E, 24 hours
[12] = read-out: HiBiT-Degradation A375.10 BRAF 2 hours Emax, A375.10 cells, BRAF V600E, 2 hours, residual protein remaining

T1 sequence (P15056 whole entry V600E): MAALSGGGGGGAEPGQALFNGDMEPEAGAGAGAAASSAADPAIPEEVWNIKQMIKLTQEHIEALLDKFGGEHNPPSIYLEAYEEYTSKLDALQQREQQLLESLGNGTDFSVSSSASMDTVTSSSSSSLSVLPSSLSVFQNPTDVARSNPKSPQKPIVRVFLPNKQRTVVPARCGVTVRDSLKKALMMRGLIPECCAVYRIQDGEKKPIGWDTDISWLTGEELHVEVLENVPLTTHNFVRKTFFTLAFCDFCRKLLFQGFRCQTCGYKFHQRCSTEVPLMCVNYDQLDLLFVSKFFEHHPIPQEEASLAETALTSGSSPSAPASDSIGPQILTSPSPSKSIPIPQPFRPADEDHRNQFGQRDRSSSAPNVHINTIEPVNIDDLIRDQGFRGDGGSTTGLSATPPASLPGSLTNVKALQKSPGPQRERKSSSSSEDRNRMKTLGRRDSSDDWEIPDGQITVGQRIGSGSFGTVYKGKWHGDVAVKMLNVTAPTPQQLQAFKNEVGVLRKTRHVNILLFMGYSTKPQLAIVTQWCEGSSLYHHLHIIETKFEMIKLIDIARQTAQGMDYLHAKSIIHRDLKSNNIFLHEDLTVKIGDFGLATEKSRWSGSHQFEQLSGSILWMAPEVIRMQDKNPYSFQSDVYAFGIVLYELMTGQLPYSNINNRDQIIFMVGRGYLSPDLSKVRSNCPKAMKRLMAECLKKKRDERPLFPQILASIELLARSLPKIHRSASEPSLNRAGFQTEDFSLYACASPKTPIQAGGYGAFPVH
T1 sequence (Q96SW2 whole entry): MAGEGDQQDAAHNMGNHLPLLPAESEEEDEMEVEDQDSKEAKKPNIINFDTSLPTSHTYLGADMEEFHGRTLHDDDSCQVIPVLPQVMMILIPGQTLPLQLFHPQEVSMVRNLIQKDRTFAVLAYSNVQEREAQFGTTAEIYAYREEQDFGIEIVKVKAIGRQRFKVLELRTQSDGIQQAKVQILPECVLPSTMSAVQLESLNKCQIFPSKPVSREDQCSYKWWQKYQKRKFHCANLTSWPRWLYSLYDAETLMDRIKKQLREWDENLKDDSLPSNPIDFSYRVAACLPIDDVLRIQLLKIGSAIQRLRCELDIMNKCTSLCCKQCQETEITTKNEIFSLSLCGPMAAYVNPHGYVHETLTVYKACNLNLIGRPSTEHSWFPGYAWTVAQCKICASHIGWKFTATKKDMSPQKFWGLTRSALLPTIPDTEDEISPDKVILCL
T1 sequence (Q16531 whole entry partner): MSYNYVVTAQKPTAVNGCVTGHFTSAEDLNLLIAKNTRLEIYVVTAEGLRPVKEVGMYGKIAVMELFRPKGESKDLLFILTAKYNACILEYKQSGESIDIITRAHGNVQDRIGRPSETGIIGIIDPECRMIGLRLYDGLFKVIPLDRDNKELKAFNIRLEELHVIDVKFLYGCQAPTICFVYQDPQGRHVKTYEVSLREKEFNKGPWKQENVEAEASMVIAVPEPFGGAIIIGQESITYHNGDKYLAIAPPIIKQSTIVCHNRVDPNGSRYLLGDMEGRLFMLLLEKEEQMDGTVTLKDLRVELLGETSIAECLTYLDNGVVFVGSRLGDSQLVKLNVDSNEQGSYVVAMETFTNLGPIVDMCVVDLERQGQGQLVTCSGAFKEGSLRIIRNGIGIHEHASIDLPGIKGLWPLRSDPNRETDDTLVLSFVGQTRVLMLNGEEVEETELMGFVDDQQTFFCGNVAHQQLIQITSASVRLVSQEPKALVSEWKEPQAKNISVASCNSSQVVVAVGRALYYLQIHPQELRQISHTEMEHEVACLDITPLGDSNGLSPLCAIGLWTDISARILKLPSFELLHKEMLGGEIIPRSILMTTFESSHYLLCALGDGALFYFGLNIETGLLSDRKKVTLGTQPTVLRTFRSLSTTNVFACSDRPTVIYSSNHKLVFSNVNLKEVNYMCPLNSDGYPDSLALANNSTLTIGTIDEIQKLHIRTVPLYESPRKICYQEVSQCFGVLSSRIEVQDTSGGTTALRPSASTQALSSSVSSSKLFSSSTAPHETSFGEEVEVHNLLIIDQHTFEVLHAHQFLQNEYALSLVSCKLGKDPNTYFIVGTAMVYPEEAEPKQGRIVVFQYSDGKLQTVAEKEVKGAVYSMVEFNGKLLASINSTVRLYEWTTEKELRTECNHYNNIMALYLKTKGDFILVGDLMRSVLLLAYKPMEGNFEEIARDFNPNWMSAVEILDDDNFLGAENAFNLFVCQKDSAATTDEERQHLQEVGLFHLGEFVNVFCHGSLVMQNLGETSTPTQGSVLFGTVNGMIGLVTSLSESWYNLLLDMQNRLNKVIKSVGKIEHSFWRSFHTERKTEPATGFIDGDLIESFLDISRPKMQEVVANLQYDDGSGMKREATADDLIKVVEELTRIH

| Compound | DC50 [1] | DC50 [2] | Emax [3] | DC50 [4] | DC50 [5] | Emax [6] | DC50 [7] | Emax [8] | DC50 [9] | HiBiT-Degradation A375.10 BRAF 6 hours Emax [10] | HiBiT-Degradation A375.10 BRAF 24 hours Emax [11] | Emax [12] | HiBiT-Degradation A375.10 BRAF 2 hours Emax |
| --- | --- | --- | --- | --- | --- | --- | --- | --- | --- | --- | --- | --- | --- |
| CCN(C)S(=O)(=O)Nc1ccc(F)c(Oc2ccc3ncn(C4CC5(CCN(C6CCC(c7cc8c(cc7F)c(N7CCC(=O)NC7=O)nn8C)CC6)CC5)C4)c(=O)c3c2)c1C#N (single isomer, unassigned) [Compound 8, 6-[2-cyano-3-[[ethyl(methyl)sulfamoyl]amino]-6-fluoro-phenoxy]-3-[7-[4-[3-(2,4-dioxohexahydropyrimidin-1-yl)-5-fluoro-1-methyl-indazol-6-yl]cyclohexyl]-7-azaspiro[3.5]nonan-2-yl]-4-oxo-quinazoline] | < 1000 nM | < 1000 nM | < 50% | < 1000 nM | < 1000 nM | – | < 1000 nM | – | < 1000 nM | *** (<=50%) | *** (<=50%) | – | – |
| CCN(C)S(=O)(=O)Nc1ccc(F)c(Oc2ccc3ncn([C@H]4COC5(CCN(C6CCC(c7cc8c(cc7F)c(N7CCC(=O)NC7=O)nn8C)CC6F)CC5)C4)c(=O)c3c2)c1C#N (single isomer, unassigned) [Compound 28] | < 1000 nM | < 1000 nM | – | < 1000 nM | < 1000 nM | < 50% | < 1000 nM | < 50% | < 1000 nM | – | – | < 50% | – |
| CCN(C)S(=O)(=O)Nc1ccc(F)c(Oc2ccc3ncn([C@@H]4CCC5(CCN(C6CCC(c7cc8c(cc7F)c(N7CCC(=O)NC7=O)nn8C)CC6)CC5)C4)c(=O)c3c2)c1C#N (single isomer, unassigned) [Compound 31] | < 1000 nM | > 10000 nM | – | – | – | – | – | – | – | – | – | 50 to 90% | – |
| CCN(C)S(=O)(=O)Nc1ccc(F)c(Oc2ccc3ncn([C@H]4CCC5(CCN(C6CCC(c7cc8c(cc7F)c(N7CCC(=O)NC7=O)nn8C)CC6)CC5)C4)c(=O)c3c2)c1C#N (single isomer, unassigned) [Compound 33] | < 1000 nM | < 1000 nM | – | < 1000 nM | < 1000 nM | < 50% | < 1000 nM | < 50% | < 1000 nM | – | – | < 50% | – |
| CCN(C)S(=O)(=O)Nc1ccc(F)c(Oc2ccc3ncn([C@H]4COC5(CCC(N6CCC(c7cc8c(cc7F)c(N7CCC(=O)NC7=O)nn8C)C(F)(F)C6)CC5)C4)c(=O)c3c2)c1C#N (single isomer, unassigned) [Compound 38] | < 1000 nM | < 1000 nM | – | < 1000 nM | < 1000 nM | < 50% | < 1000 nM | < 50% | < 1000 nM | – | – | < 50% | – |
| CCN(C)S(=O)(=O)Nc1ccc(F)c(Oc2ccc3ncn([C@H]4COC5(CCC(N6CCC(c7cc8c(cc7F)c(N7CCC(=O)NC7=O)nn8C)C(F)(F)C6)CC5)C4)c(=O)c3c2)c1C#N (single isomer, unassigned) [Compound 39] | < 1000 nM | < 1000 nM | – | < 1000 nM | < 1000 nM | – | < 1000 nM | – | < 1000 nM | *** (<=50%) | *** (<=50%) | – | *** (<=50%) |
| CCN(C)S(=O)(=O)Nc1ccc(F)c(Oc2ccc3ncn([C@H]4COC5(CCN(C6CCC(c7cc8c(cc7F)c(N7CCC(=O)NC7=O)nn8C)CC6)CC5)C4)c(=O)c3c2F)c1C#N (single isomer, unassigned) [Compound 41] | < 1000 nM | < 1000 nM | – | < 1000 nM | < 1000 nM | < 50% | < 1000 nM | < 50% | < 1000 nM | – | – | < 50% | – |
| CCN(C)S(=O)(=O)Nc1ccc(F)c(Oc2ccc3ncn([C@H]4COC5(CCN(C6CCC(c7cc8c(cc7F)c(N7CCC(=O)NC7=O)nn8C)CC6O)CC5)C4)c(=O)c3c2)c1C#N (single isomer, unassigned) [Compound 43] | < 1000 nM | < 1000 nM | 50 to 90% | < 1000 nM | < 1000 nM | < 50% | < 1000 nM | < 50% | < 1000 nM | – | – | – | – |
| CCN(C)S(=O)(=O)Nc1ccc(F)c(Oc2ccc3ncn([C@@H]4COC5(CCN(C6CCC(c7cc8c(cc7F)c(N7CCC(=O)NC7=O)nn8C)CC6)CC5)C4)c(=O)c3c2F)c1C#N (single isomer, unassigned) [Compound 46] | < 1000 nM | < 1000 nM | – | < 1000 nM | < 1000 nM | < 50% | < 1000 nM | < 50% | < 1000 nM | – | – | < 50% | – |
| CCN(C)S(=O)(=O)Nc1ccc(F)c(Oc2ccc3ncc([C@H]4COC5(CCN(C6CCC(c7cc8c(cc7F)c(N7CCC(=O)NC7=O)nn8C)CC6)CC5)C4)nc3c2)c1C#N (single isomer, unassigned) [Compound 48] | < 1000 nM | < 1000 nM | – | < 1000 nM | < 1000 nM | < 50% | < 1000 nM | < 50% | < 1000 nM | – | – | < 50% | – |
| CCN(C)S(=O)(=O)Nc1ccc(F)c(Oc2ccc3ncn([C@H]4COC5(CCN(C6CCC(c7ccc(NC8CCC(=O)NC8=O)cc7F)CC6)CC5)C4)c(=O)c3c2F)c1C#N (single isomer, unassigned) [Compound 50] | < 1000 nM | < 1000 nM | < 50% | < 1000 nM | < 1000 nM | < 50% | < 1000 nM | < 50% | < 1000 nM | – | – | – | – |
| CCN(C)S(=O)(=O)Nc1ccc(F)c(Oc2ccc3ncn([C@@H]4COC5(CCN(C6CCC(c7ccc(NC8CCC(=O)NC8=O)cc7F)CC6)CC5)C4)c(=O)c3c2F)c1C#N (single isomer, unassigned) [Compound 52] | < 1000 nM | < 1000 nM | < 50% | < 1000 nM | < 1000 nM | < 50% | < 1000 nM | < 50% | < 1000 nM | – | – | – | – |

The remaining lines, values ahead:

| DC50 [1] | DC50 [2] | Emax [3] | DC50 [4] | DC50 [5] | Emax [6] | DC50 [7] | Emax [8] | DC50 [9] | HiBiT-Degradation A375.10 BRAF 6 hours Emax [10] | HiBiT-Degradation A375.10 BRAF 24 hours Emax [11] | Emax [12] | HiBiT-Degradation A375.10 BRAF 2 hours Emax | Compound |
| --- | --- | --- | --- | --- | --- | --- | --- | --- | --- | --- | --- | --- | --- |
| < 1000 nM | < 1000 nM | < 50% | < 1000 nM | < 1000 nM | < 50% | < 1000 nM | < 50% | < 1000 nM | – | – | – | – | CCN(C)S(=O)(=O)Nc1ccc(F)c(Oc2ccc3ncn([C@H]4COC5(CCN(C6CCC(c7ccc(N[C@H]8CCC(=O)NC8=O)cc7F)CC6)CC5)C4)c(=O)c3c2)c1C#N (single isomer, unassigned) [Compound 3] |
| < 1000 nM | < 1000 nM | < 50% | < 1000 nM | < 1000 nM | < 50% | < 1000 nM | < 50% | < 1000 nM | – | – | – | – | CCN(C)S(=O)(=O)Nc1ccc(F)c(Oc2ccc3ncn([C@H]4COC5(CCN(C6CCC(c7ccc(N[C@@H]8CCC(=O)NC8=O)cc7F)CC6)CC5)C4)c(=O)c3c2)c1C#N (single isomer, unassigned) [Compound 4] |
| < 1000 nM | < 1000 nM | < 50% | < 1000 nM | < 1000 nM | < 50% | < 1000 nM | < 50% | < 1000 nM | – | – | – | – | CCN(C)S(=O)(=O)Nc1ccc(F)c(Oc2ccc3ncn(C4CC5(CCN(C6CCC(c7ccc(NC8CCC(=O)NC8=O)cc7F)CC6)CC5)C4)c(=O)c3c2)c1C#N (single isomer, unassigned) [Compound 6, 6-[2-cyano-3-[[ethyl(methyl)sulfamoyl]amino]-6-fluoro-phenoxy]-3-[7-[4-[4-[(2,6-dioxo-3-piperidyl)amino]-2-fluoro-phenyl]cyclohexyl]-7-azaspiro[3.5]nonan-2-yl]-4-oxo-quinazoline] |
| < 1000 nM | < 1000 nM | < 50% | < 1000 nM | < 1000 nM | < 50% | < 1000 nM | < 50% | < 1000 nM | – | – | – | – | CCN(C)S(=O)(=O)Nc1ccc(F)c(Oc2ccc3ncn([C@@H]4C[C@@H]5CN(C6CCC(c7ccc(NC8CCC(=O)NC8=O)cc7F)CC6)C[C@@H]5C4)c(=O)c3c2)c1C#N (single isomer, unassigned) [Compound 21] |
| < 1000 nM | < 1000 nM | < 50% | < 1000 nM | < 1000 nM | < 50% | < 1000 nM | < 50% | < 1000 nM | – | – | – | – | CCN(C)S(=O)(=O)Nc1ccc(F)c(Oc2ccc3ncn([C@H]4CCC5(CCN(C6CCC(c7ccc(NC8CCC(=O)NC8=O)cc7F)CC6)CC5)C4)c(=O)c3c2)c1C#N (single isomer, unassigned) [Compound 24] |
